“Also recorded” adds a separate entry of the source.

The first experiment deals with biosynthesis of the peptidoglycan framework of the bacterial cell wall.
Test: not given
Particulars: cited from earlier work.
In the case of `C=C(C/C=C(\C)CCC=C(C)C)CCC(C)(C)/C=C/CC/C(C)=C/CO[C@@H](COP(=O)(O)O[C@H]1O[C@H](C(N)=O)[C@@](C)(O)[C@H](OC(N)=O)[C@H]1O[C@@H]1O[C@H](CO[C@@H]2O[C@H](CO)[C@@H](O)[C@H](O)[C@H]2O)[C@@H](O[C@@H]2O[C@H](C)[C@@H](O[C@@H]3O[C@H](C(=O)NC4=C(O)CCC4=O)[C@H](O)[C@H](O)[C@H]3O)[C@H](O)[C@H]2NC(C)=O)[C@H](O)[C@H]1NC(C)=O)C(=O)O` [Moenomycin A], the “Inhibition of the biosynthesis of the peptidoglycan framework of the bacterial cell wall” value is “inhibits”.

The subject of another experiment is moenomycinase. Nature of the experiment: Moenomycinase activity (cleavage of moenomycin A, TLC/UV analysis). It counts as biochemical, Bacillus sp. DSM 4675. Conditions: EDTA 10 mM in FIG. 1. As to the method: Partially purified moenomycinase was dialyzed for 24 hours. The dialyzed moenomycinase was incubated with moenomycin A (6 mg/ml) in 100 mM potassium phosphate buffer, pH 8.0, for 31 hours with the addition of metal ions (0.5 or 1.0 mM, except K^+ =20 mM0 or EDTA (10 mM). Enzyme activity was measured by determining the amount of MC formed using TLC and UV analysis as described in Example 3. The TLC plates were scanned at a wavelength of 254 nm using a DESAGA Chromatogram Densitometer CD50. Enzyme activity is expressed relative to the activity of the dialyzed preparation ("Dial").
FIG. 2. Activation of Moenomycinase by Cobalt. Purified moenomycinase was incubated with moenomycin A in the presence of the indicated concentrations of Co^++. Enzyme activity was measured by determining the amount of MB formed using TLC and UV analysis as described in FIG. 1.
The molecular weight of moenomycinase is 230,000±10,000 Dalton. Moenomycinase has an optical pH of 8.0 to 8.5 and an optimal temperature of 45° to 55° C. Moenomycinase has a Km value of 4 to 10 mmolar based on moenomycin A as substrate.
Consider `CC(=O)OCC1=C(C(=O)O)N2C(=O)[C@@H](N)[C@H]2SC1` [7-aminocephalosporin acid (7-ACA), 7-aminocephalosporin acid], for which the Inhibition of moenomycinase entry is given as “inhibited”.

Take `CC(=O)OCC1=C(C(=O)O)N2C(=O)[C@@H](NC(=O)CCC[C@@H](N)C(=O)O)[C@H]2SC1` [Cephalosporin C]: the Inhibition of moenomycinase entry is listed as “inhibited”.

For the compound `O=C(O)CN(CCN(CC(=O)O)CC(=O)O)CC(=O)O` [EDTA], the Inhibition of moenomycinase entry was “inhibited”.

Take `C=O` [formalin]: the Inhibition of moenomycinase result is reported as “inhibited”.

The same experiment, now with this note: metal ions 0.05-1.0 mM.
`[Ca+2]` [Ca^++]: the Activation of moenomycinase result is listed as “activated”.

Regarding `[Co+2]` [Co^++], the Activation of moenomycinase entry is recorded as “activated”.

Turning to `[Mg+2]` [Mg^++], the Activation of moenomycinase entry is on record as “activated”.

On to `[Ni+2]` [Ni^++], for which the Activation of moenomycinase result was “activated; also recorded: greatest activation”.

The values are drawn from patent US5316929A, “Process for the preparation of MA” (Hoechst Aktiengesellschaft, priority 1991, dated 1994).
